Laboratory results from patent US20060211703A1, “Substituted alkyl-pyridazinones for the treatment of memory and learning malfunctions” (priority 2003, published 2006).
Entries after “also recorded” stand apart in the source; their conditions may differ.

Columns and labels:
[1] = tested on: Male Wistar rats; assay: step through-type passive avoidance learning test; assay type: in vivo, rat; conditions: 30 min before test, FIG. 1
Procedure: Male Wistar rats weighing 200-220 g were used. The animals were obtained from Charles River Co. They were kept in a room with normal 12-12 h light dark cycle (light on: 06:00) at relative humidity of 60±10%.
The experiment was performed in a five-channel “step through”-type passive avoidance learning apparatus. The equipment consisted of to adjacent Plexi-glass box of 20×20×16 cm. One of them was made of regular transparent Plexi-glass and the other one was made of black, non-transparent Plexi-glass. The boxes were connected with a 7.5×8 cm passageway, equipped with a computer-controlled guillotine-door. The passage of the rats through the door was detected by infrared photocells arranged in two parallel lines in the opening of the passageway. The door was automatically closed when the animals passed through. The dark compartment was equipped with stainless steel grid floor through which electric foot shocks could have been delivered to the animals. […]
The individually numbered animals were placed into the light compartment of the equipment. […] Step through latency was automatically determined. […]
After 24 h the animals were placed again in the light compartment of the test apparatus and step-through latency was measured as described at Acquisition day, except that no foot shock was applied to the animals in any group on the second day. […]

[2] = known anxiolytic compounds, comparison statement; cited from earlier work

| SMILES | step-through latency into the dark compartment (effect on acquisition / learning) ([1]; 1 mg/kg ip. at Day 1 (Acquisition), latency measured at Day 2, vs shocked vehicle control) | step-through latency into the dark compartment (effect on recall / long term memory) ([1]; 1 mg/kg ip. at Day 2 (Retention), vs shocked vehicle control) | effect on memory [2] |
| --- | --- | --- | --- |
| O=c1cc(NCCN2CCN(c3cccc4c3OCCO4)CC2)cn[nH]1 [compound A, 5-[2-[4-(2,3-dihydro-benzo[1,4]dioxine-5-yl)-piperazine-1-yl]-ethylamine]-2H-pyridazine-3-one] | significantly increased; also recorded: further increased | significantly increased |  |
| CN1C(=O)CN=C(c2ccccc2)c2cc(Cl)ccc21 [diazepam] |  |  | deleterious |
